Measured values reported in patent US8541670B2, “Compositions and methods for inhibiting tumor cell growth” (priority 2007, dated 2013).
Where no end group is shown, it is not given here. red fluorescent dye = not defined here

Tests used:
AKT [1] = biological target: T1, AKT (Homo sapiens, UniProt P31749); test: Screen of PKAc peptide library for effect on catalytic activity of AKT; format: biochemical; conditions: single peptide
T1 construct: purchased Upstate Biotechnology
Text: Unlike PKAc and protein kinase C (PKC) for which potent inhibitor peptides are readily available and widely used, inhibitors of AKT are generally lacking (Brazil, et al. (2004) supra). […] Moreover, optimal substrate motifs for AKT have been modified to design AKT inhibitors (Obata, et al. (2000) J. Biol. Chem. 275:36108-36115). Because the full-length PKAc protein inhibited the catalytic activity of AKT, a peptide library based on the human (GENBANK Accession No. NP_002721; SEQ ID NO:1) and bovine (GENBANK Accession No. CAA47627; SEQ ID NO:2) PKAc protein sequences was designed and synthesized. This library contained 96 overlapping peptides (Table 1), covering the full-length protein sequence of human and bovine PKAc from the N- to C-terminus. The library was extensively screened to identify fragments of PKAc that mediated the inhibitory effect of PKAc toward AKT.
These peptides included peptide 49 (SEQ ID NO:56), 53 (SEQ ID NO:60), 62 (SEQ ID NO:69), 63 (SEQ ID NO:70) and 64 (SEQ ID NO:71). Combinations of consecutive overlapping peptide fragments were also assayed for an effect on the catalytic activity of AKT. A significant inhibitory effect was also observed when peptides 25 through 36 were combined (i.e., SEQ ID NOs:32-43), peptides 37 through 48 were combined (i.e., SEQ ID NOs:44-55), peptides 49 through 60 were combined (i.e., SEQ ID NOs:56-67), and peptides 61 through 72 were combined (i.e., SEQ ID NOs:68-79).

AKT [2] = test: In vivo AKT inhibition in brain after stereotactic injection (immunofluorescence, western blot); set-up: species or system mouse
Protocol: As a specific substrate, the phosphorylation level of GSK-3[…] at Ser-9 was also evaluated. […] The decrease was specific to the AKT phosphorylation site on GSK-3[…] at Ser-9, since a change in the phosphorylation level of GSK-3[…] at Tyr-216 or GSK-3[…] at Tyr-279 was not observed. Moreover, the in vivo reduction of the phosphorylation of AKT substrates was more obvious at the injection site, since a significant change in the phosphorylation of AKT substrates in the frontal cortex or cerebellum between the two hemispheres was not observed. […] To test the specificity/selectivity of ZaTa as the inhibitor of AKT1 versus the other major kinases, a series of in vitro kinase assays was performed at IC50 for AKT1 and at ten times higher concentrations. A panel of the following 32 kinases was first tested in vitro using the active form of each kinase and a specific substrate: AKT2, AKT3, PKA, PKC[…], PKC, PI3K[…], PI3K[…], PI3K, SGK, PAK2, PAK3, SAPK2/p38, Abl, CaMKII, CDK1/cyclinB, CDK5/p35, CK1, CK2, CSK, GSK3[…], GSK3[…], JNK1[…]1, MAPK1, p70S6K, PDGFR[…], PDGFR[…], PDK1, PKG1[…], TrkB, JAK2, JAK3, and Syk. […] However, at ten times higher concentration, ZaTa inhibited AKT2 (63%), PI3K[…] (72%), p70S6K (64%), SGK (73%), PAK3 (83%), JAK3 (79%), TrkB (84%), and Abl (42%). To confirm the in vitro inhibitory effect on these kinases in cells, a cell-based assay was used to determine the effect of labeled ZaTa on the phosphorylation levels of well-known intracellular substrates for each kinase (Zipfel, et al. (2004) Curr. Biol. 14:1222-1231; Wang, et al. (2003) Arch. Biochem. Biophys. 410:7-15; King, et al. (1998) Nature 396:180-183; Rangone, et al. (2004) Eur. J. Neurosci. 19:273-279; Middlemas, et al. (1994) J. Biol. Chem. 269:5458-5466; Huang, et al. (1999) J. Biol. Chem. 274:7870-7878). […] Given that most of the above-listed kinases have no known inhibitor, it is contemplated that the ZaTa could be used at micromolar concentrations in in vitro studies to inhibit the activity of the select kinases.
These different localization patterns of ZaTa within the cell were usually accompanied with redistribution of AKT to the site of ZaTa.
N2a cells were cultured in Dulbecco's Modified Eagle's Medium (DMEM) and OPTI-MEM® media (50% of each; GIBCO-BRL, Gaithersberg, Md.) supplemented with 5% fetal bovine serum (FBS; SIGMA, St. Louis, Mo.), penicillin-streptomycin and L-Glutamine (GIBCO-BRL). Cells (˜1×10^6) or frontal cortex of mouse brain (0.05-0.1 gram) were homogenized in ice cold lysate buffer (0.25 M Tris, pH 7.5) containing protease inhibitors (Protease Inhibitor Cocktail tablets; Boehringer Mannheim, Mannheim, Germany) and phosphatase inhibitors (Phosphatase Inhibitor Cocktails I & II; SIGMA) and lysed through three cycles of freezing in liquid nitrogen and thawing in a 37° C. water bath. Protein concentration was measured using a commercially available protein assay (BIO-RAD, […].) protein assay and spectrometry at […]. Equal amounts of total protein were loaded on 4-12% gradient Bis-Tris gels, separated using the NUPAGE® system (INVITROGEN, Carlsbad, Calif.) and transferred onto nitrocellulose membrane. The membrane was probed with primary and secondary antibodies and signals were detected by chemiluminescence followed by autoradiography.
For immunofluorescence analysis of mouse brain, anaesthetized mice were perfused with PBS-buffered formalin, fixed overnight, placed in PBS, and stored at 4° C. VIBRATOME® sections, 50-μm thick, were cut in the coronal plane from the fronto-striatum brain region. […] The sections were blocked overnight using 2% normal goat sera in PBS with 0.3% TRITON™ X-100 and then incubated for 48 hours in blocking solution with 1:500 dilution of anti-phospho-AKT substrate antibody. Sections were washed four times for 15 minutes in PBS, incubated with blocking solution containing goat anti-rabbit ALEXA®-568 secondary antibody (MOLECULAR PROBES, Eugene, Oreg.) for 48 hours, and washed four times for 15 minutes in PBS. […]

Abl = Abl (Homo sapiens, UniProt P00519); test: Cell-based kinase assay, phosphorylation of intracellular substrate (Tyr-207 CRKL)
Chain of Abl (P00519 whole entry, species assumed): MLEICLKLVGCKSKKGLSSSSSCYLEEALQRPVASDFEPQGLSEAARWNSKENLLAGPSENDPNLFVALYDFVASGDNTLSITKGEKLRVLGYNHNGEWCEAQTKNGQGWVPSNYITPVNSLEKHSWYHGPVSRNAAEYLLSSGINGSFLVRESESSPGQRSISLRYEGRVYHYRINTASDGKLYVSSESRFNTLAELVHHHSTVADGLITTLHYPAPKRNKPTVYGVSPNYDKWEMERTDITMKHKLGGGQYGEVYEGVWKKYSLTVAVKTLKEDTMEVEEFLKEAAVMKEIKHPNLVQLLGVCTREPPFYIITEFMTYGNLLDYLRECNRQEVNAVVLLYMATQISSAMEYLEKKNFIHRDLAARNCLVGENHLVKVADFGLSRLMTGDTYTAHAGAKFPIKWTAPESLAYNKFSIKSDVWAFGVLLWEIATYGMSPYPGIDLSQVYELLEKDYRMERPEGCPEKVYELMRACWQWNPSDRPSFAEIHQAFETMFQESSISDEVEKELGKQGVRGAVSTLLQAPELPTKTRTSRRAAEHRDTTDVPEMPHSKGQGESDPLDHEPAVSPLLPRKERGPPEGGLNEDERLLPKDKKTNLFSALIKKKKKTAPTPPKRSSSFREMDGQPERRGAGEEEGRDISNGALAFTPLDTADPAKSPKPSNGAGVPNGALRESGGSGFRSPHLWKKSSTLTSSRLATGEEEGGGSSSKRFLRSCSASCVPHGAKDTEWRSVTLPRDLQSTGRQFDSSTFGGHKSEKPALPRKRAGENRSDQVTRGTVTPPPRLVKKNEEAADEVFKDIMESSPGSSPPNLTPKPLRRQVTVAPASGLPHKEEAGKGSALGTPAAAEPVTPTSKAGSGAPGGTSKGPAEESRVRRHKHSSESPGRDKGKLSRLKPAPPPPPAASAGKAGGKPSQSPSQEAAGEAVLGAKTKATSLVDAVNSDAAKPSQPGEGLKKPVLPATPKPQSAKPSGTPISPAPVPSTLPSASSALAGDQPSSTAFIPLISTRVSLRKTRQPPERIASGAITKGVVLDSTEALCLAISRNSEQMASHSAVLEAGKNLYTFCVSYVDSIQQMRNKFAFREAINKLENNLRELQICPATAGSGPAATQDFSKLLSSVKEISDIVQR
Protocol: As a specific substrate, the phosphorylation level of GSK-3[…] at Ser-9 was also evaluated. […] The decrease was specific to the AKT phosphorylation site on GSK-3[…] at Ser-9, since a change in the phosphorylation level of GSK-3[…] at Tyr-216 or GSK-3[…] at Tyr-279 was not observed. Moreover, the in vivo reduction of the phosphorylation of AKT substrates was more obvious at the injection site, since a significant change in the phosphorylation of AKT substrates in the frontal cortex or cerebellum between the two hemispheres was not observed. […] To test the specificity/selectivity of ZaTa as the inhibitor of AKT1 versus the other major kinases, a series of in vitro kinase assays was performed at IC50 for AKT1 and at ten times higher concentrations. […]
Phosphorylation sites for kinases analyzed herein included Ser-235/236 S6 (a substrate for p70S6K), Tyr-207 CRKL (a substrate for Abl; Zipfel, et al. (2004) supra), Ser-241 PDK1 (a substrate for PI3K), Tyr-1022/1023 JAK1 (a substrate for JAK3; Wang, et al. (2003) supra), Ser-421 Huntingtin (a substrate for SGK; Rangone, et al. (2004) supra), Tyr-783 PLC (a substrate for TrkB; Middlemas, et al. (1994) supra), and Ser-338 cRaf (a substrate for PAK3; King, et al. (1998) supra).

T1 sequence (P31749 whole entry): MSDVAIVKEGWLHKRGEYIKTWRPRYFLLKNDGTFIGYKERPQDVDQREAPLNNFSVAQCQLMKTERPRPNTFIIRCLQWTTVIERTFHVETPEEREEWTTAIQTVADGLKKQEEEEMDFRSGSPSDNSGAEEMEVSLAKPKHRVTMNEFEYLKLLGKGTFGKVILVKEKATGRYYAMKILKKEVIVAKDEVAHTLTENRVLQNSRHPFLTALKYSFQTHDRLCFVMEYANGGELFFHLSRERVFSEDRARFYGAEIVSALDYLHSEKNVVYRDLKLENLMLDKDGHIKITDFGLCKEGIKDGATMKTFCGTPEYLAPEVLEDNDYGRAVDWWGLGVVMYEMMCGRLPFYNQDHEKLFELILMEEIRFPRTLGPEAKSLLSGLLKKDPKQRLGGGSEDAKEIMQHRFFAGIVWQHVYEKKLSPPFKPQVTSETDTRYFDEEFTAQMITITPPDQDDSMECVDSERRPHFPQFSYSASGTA

Row | Substance | inhibitory effect toward AKT, individual library peptides (AKT [1]) | change in phosphorylation of AKT substrates in frontal cortex or cerebellum (AKT [2]; away from striatal injection site, between hemispheres) | phosphorylation level of AKT substrates in vivo, western blot (AKT [2]; one hour after stereotactic injection) | phosphorylation level of AKT substrates in striatum, immunofluorescence (AKT [2]; stereotactic injection, versus DMSO-injected hemisphere) | change in phosphorylation level of GSK-3[…] at Tyr-216 or Tyr-279 (AKT [2]; striatum) | phosphorylation level of GSK-3[…] at Ser-9 (AKT [2]; striatum, versus DMSO-injected hemisphere) | inhibition of Abl in cells (Abl) | phosphorylation level of AKT substrates in ZaTa-positive cells (AKT [2]; stereotactic injection into frontal cortex)
1 | AKRVKGRTWTLCGTPEY [ZaTa] | significant inhibitory effects | not observed | significant decrease | decrease in the phosphorylation level of AKT substrates | not observed | specific reduction |  | 
2 | labeled ZaTa: ZaTa peptide labeled with a red fluorescent dye at its N-terminus ({red fluorescent dye}-AKRVKGRTWTLCGTPEY; reading uncertain) |  |  |  |  |  |  | did not cause inhibition | specific reduction in phosphorylation level of AKT substrates
